Values after ≈ are worked out from the molar mass of the structure shown. Bounds are passed on as bounds.

These results are taken from PubChem BioAssay AID1996.

For this data set the following is noted: buffer; pH 7.4; 200.0 µM.
The term solubility (kinetic) denotes solubility judged after dilution from a stock solution rather than from solid. In turn, `CCN(C(=O)c1cccs1)C1CCS(=O)(=O)C1` (configuration not stated) registered a kinetic solubility greater than 41 µg/mL.

The compound `Cc1ccc(OCCNC(=O)c2cccc(C)c2)cc1` had a solubility (kinetic) of 29 µg/mL (≈ 108 µM).

`Cc1cc(Cl)ccc1NC(=O)CCN1C(=O)NC(C)(C)C1=O` showed a kinetic solubility greater than 48.6 µg/mL.

Take `O=C(Cn1c(NCCO)nc2ccccc21)Nc1cccc(S(=O)(=O)N2CCCC2)c1`: the kinetic solubility was found to be 63.1 µg/mL (≈ 142 µM).

Compound `CN1CC(=O)N(CC(=O)Nc2ccc3c(c2)CCC3)C1=O` returned a kinetic solubility greater than 43.1 µg/mL.

`CC(=O)N1CCC(C(=O)Nc2cc(C)cc(C)c2)CC1` registered a kinetic solubility greater than 41.2 µg/mL.

On to `COc1cc(Cl)c(C)cc1NC(=O)CCN1C(=O)NC(C)(C)C1=O`, for which the solubility (kinetic) was greater than 53.1 µg/mL.

On to `COCc1cc(C)nc(SCc2ccc([N+](=O)[O-])cc2)c1C#N`, for which the kinetic solubility worked out at 5.2 µg/mL (≈ 15.8 µM).

Compound `Cc1ccc(C23CC4CC(CC(C(=O)NC(C(=O)O)C(C)C)(C4)C2)C3)cc1` (configuration not stated) returned a solubility (kinetic) of 48.1 µg/mL (≈ 130 µM). This solubility kinetic lies about 9.2-fold higher than the previous one.

As to `O=[N+]([O-])c1ccccc1S(=O)(=O)NCCSCc1ccco1`, the kinetic solubility stood at 51 µg/mL (≈ 149 µM).

As for `CCOc1cc(C(N)=O)cc(Br)c1OCc1ccccc1`, the kinetic solubility worked out at 12.8 µg/mL (≈ 36.5 µM).

`Cc1cc(C)c(S(=O)(=O)NCC(=O)NCc2ccccn2)c(C)c1`: the kinetic solubility is greater than 52.1 µg/mL.

Compound `CCOC(=O)c1sc(Nc2cccc(Cl)c2)nc1C` returned a solubility (kinetic) of less than 0.3 µg/mL.

For the compound `CC(CN1CCCCC1)OC(=O)c1ccc2c(c1)OCCO2.Cl` (configuration not stated), the kinetic solubility is greater than 51.3 µg/mL.

In the case of `O=C(Nc1cccnc1)C1CC(=O)N(c2ccc(F)cc2)C1` (configuration not stated), the solubility (kinetic) is greater than 44.9 µg/mL.

In turn, `Cc1ccc(C)c(OCCCCN2CCCCC2)c1.O=C(O)C(=O)O` registered a solubility (kinetic) of 47.5 µg/mL.

Compound `Cc1cc(Cc2c(O)[nH]c(=S)[nH]c2=O)ccc1OC(C)C` had a kinetic solubility of 34.8 µg/mL (≈ 114 µM).

`COc1cc(C(=O)NCCC(=O)NC(C)C)cc(OC)c1OC`: the kinetic solubility was greater than 48.7 µg/mL.

In turn, `COc1ccc(/C=C/C(=O)NCCCNC(=O)/C=C/c2ccc(OC)c(OC)c2)cc1OC` returned a solubility (kinetic) of 60 µg/mL (≈ 132 µM).

`C[C@H](NC(=O)N1CCn2c1nc1ccccc12)C(=O)NC1CC1` had a kinetic solubility greater than 47 µg/mL.

`N#CC1=C(N)N2C(=C(C#N)C13CCCC3)Nc1ccccc12` registered a kinetic solubility of 36.9 µg/mL (≈ 128 µM).

In the case of `Cc1c(C)n(CCO)c2ncnc(Nc3ccc(F)cc3)c12`, the solubility (kinetic) is greater than 45.1 µg/mL.

For the compound `COc1cc2[nH]c(C(=O)N(C)Cc3ccccc3)cc2c(OC)c1OC`, the solubility (kinetic) came to 35.7 µg/mL (≈ 101 µM).

Take `COc1ccc(CNC(=O)CSc2nc3cccnc3s2)cc1`: the solubility (kinetic) is 36.3 µg/mL (≈ 105 µM).

Take `NC(CSCc1cccc(Br)c1)C(=O)O` (configuration not stated): the solubility (kinetic) is greater than 43.5 µg/mL.

In turn, `O=C1C(Cc2ccc(O)cc2)NC(=S)N1Cc1ccccc1` (configuration not stated) returned a solubility (kinetic) greater than 46.9 µg/mL.

As for `CCOC(=O)C1(C)Oc2ccc(S(=O)(=O)CC)cc2NC1=O` (configuration not stated), the kinetic solubility was determined as 42.7 µg/mL (≈ 130 µM).

For `COC(=O)c1cc2ccccc2n1S(=O)(=O)c1ccccc1`, the kinetic solubility was less than 0.7 µg/mL.

`Fc1ccc(-c2c[nH]c(=S)n2Cc2ccccc2)cc1` displayed a kinetic solubility of 1.4 µg/mL (≈ 4.92 µM).

In the case of `Cn1c(O)c(C=Nc2ccc(Br)cc2)sc1=O`, the solubility (kinetic) was less than 0.3 µg/mL.

The compound `COC(=O)Nc1cc(C(=O)c2ccc(Cl)cc2Cl)c[nH]1` registered a kinetic solubility of 43.6 µg/mL (≈ 139 µM).

In turn, `COc1ccc(S(=O)(=O)Nc2ccncc2)c(C)c1C` came in with a kinetic solubility of 4.6 µg/mL (≈ 15.7 µM).

`O=C(Nc1ccccc1N1CCOCC1)c1ccc2c(c1)OCCO2` gave a solubility (kinetic) of 5.6 µg/mL (≈ 16.5 µM).

Regarding `Cc1ccccc1C(=O)Nc1cccc(NC(=O)c2ccccc2[N+](=O)[O-])c1`, the solubility (kinetic) was 1.2 µg/mL (≈ 3.2 µM).

Compound `Cc1nn(CC(=O)NCCc2ccccc2)c(=O)c2cccn12` displayed a kinetic solubility greater than 46.6 µg/mL.

In turn, `CN1C(=O)NC(c2ccc([N+](=O)[O-])cc2)C2=C1CC(C)(C)CC2=O` (configuration not stated) came in with a kinetic solubility greater than 49.4 µg/mL.

Regarding `Cc1nc(CCNS(=O)(=O)c2cccnc2)cs1`, the solubility (kinetic) is greater than 42.5 µg/mL.

`CN(Cc1ccccc1)C(=O)COC(=O)c1ccc(Br)c(S(=O)(=O)N2CCOCC2)c1` registered a solubility (kinetic) of 36.7 µg/mL (≈ 71.8 µM).

Take `CCN1C(=O)c2ccccc2Sc2ccc(C(=O)O)cc21`: the kinetic solubility was greater than 44.9 µg/mL.

Take `Cc1ccc2c(=O)c(CN3CCCCCC3)c(C)[nH]c2c1C`: the solubility (kinetic) was 40.6 µg/mL (≈ 136 µM).

Regarding `CCc1ccccc1N1C(=O)C(Cl)=C(N2CCOCC2)C1=O`, the kinetic solubility came out at 45.8 µg/mL (≈ 143 µM).

For `COC(=O)Cn1c(C)nc([N+](=O)[O-])c1Br`, the solubility (kinetic) stood at 31.9 µg/mL (≈ 115 µM).

`Cc1c(C)c(C)c(CN2CCCC2)c(C)c1C` yielded a solubility (kinetic) of 29.4 µg/mL (≈ 127 µM).

Turning to `Cn1cc(C(=O)NCCO)c(=O)c2ccccc21`, the solubility (kinetic) was greater than 36.9 µg/mL.

Compound `Cc1c(C)c(C)c(S(=O)(=O)N2CCSCC2)c(C)c1C` gave a solubility (kinetic) of 1.5 µg/mL (≈ 4.78 µM).

As to `CCOc1ccccc1C(=O)NC(C(=O)Nc1cccnc1)C(C)C` (configuration not stated), the kinetic solubility was determined as 33.7 µg/mL (≈ 98.7 µM).

`CC(C)Cc1csc(NC(=O)C(C)C)c1C(=O)O`: the kinetic solubility is greater than 40.4 µg/mL.

`COc1ccc(/C=C2\N=C3CCCN3C2=O)cc1`: the solubility (kinetic) was greater than 36.3 µg/mL.

Take `COc1ccc(NS(=O)(=O)c2ccc(N3CCCC3)c(NC(=S)Nc3cccc(C)c3C)c2)cc1`: the solubility (kinetic) was 7.6 µg/mL (≈ 14.9 µM).

Turning to `CN(C(=O)COC(=O)c1cn(C)c2ccccc12)C1CCCCC1`, the solubility (kinetic) was greater than 49.3 µg/mL.

`Cc1ccc(C(=O)O)cc1NC(=O)C1=CSCCO1` came in with a solubility (kinetic) greater than 41.9 µg/mL.

For `CCCC(C)NC(=O)CN1C(=O)c2cccc3cccc1c23` (configuration not stated), the solubility (kinetic) came to 8.3 µg/mL (≈ 28 µM).
